# According to article PMC7546004, “Targeting BCL10 by small peptides for the treatment of B cell lymphoma” (Theranostics, 2020):
# Square brackets hold non-standard residues; d marks the D form. Peptide text beside a SMILES is read from it.
# Tested on: NF-κB signalling pathway
# Test: Western blot of NF-κB pathway proteins (IKKβ, p-IKKβ, IκBα, p-IκBα)
# Type: cell-based
# Conditions: 12 h, indicated concentrations; Figure 6E
# Protocol: Cell pellets were lysed in RIPA buffer (50 mM Tris at pH 8.0, 150 mM NaCl, 1% NP-40, 1 mM EDTA, and 1X protease inhibitor cocktail) or RIPA buffer containing 0.1% SDS. Equal amounts of protein extracts were separated by SDS-PAGE and blotted onto polyvinylidene difluoride (PVDF) membranes. The following Antibodies were purchased and used in this study: anti-IκBα (10268-1), anti-IKKβ (20979-1), anti-Bcl2 (12789-1-AP), anti-GAPDH (10494-1-AP), and anti-β-actin (66009-1-AP) were from Proteintech; anti-p-IκBα (2859S), anti-p-IKKβ (2697S), anti-RelB (10544), anti-α-tubulin (5335), anti-PARP (9532S), and anti-CARMA1 (4435) were from Cell Signaling Technology; anti-β-actin (A1978) was from Sigma; anti-Bcl10 (A1106) was from ABclonal; anti-A20 (sc-166692), anti-CYLD (sc-74435), and anti-MALT1 (sc-46677) were from Santa Cruz; anti-HOIL-1 (HPA024185) was from Atlas Antibodies; and anti-Myc (ab9106) was from Abcam.
compound,measurement,value
CC[C@@H](C)[C@@H](NC(=O)[C@@H](CCCCN)NC(=O)[C@H](NC(=O)[C@@H](Cc1c[nH]c2ccccc12)NC(=O)[C@@H](Cc1ccccc1)NC(=O)[C@@H](CCC(N)=O)NC(=O)[C@@H](CC(N)=O)NC(=O)[C@@H](CCCNC(=N)N)NC(=O)[C@@H](CCCNC(=N)N)NC(=O)[C@@H](CCSC)NC(=O)[C@@H](CCCCN)NC(=O)[C@@H](Cc1c[nH]c2ccccc12)NC(=O)[C@@H](CCCCN)NC(=O)[C@@H](CCCCN)NC(=O)[C@@H](CCCNC(=N)N)NC(=O)[C@H](NC(=O)[C@@H](CO)NC(=O)[C@@H](CO)NC(=O)[C@@H](CCCNC(=N)N)NC(=O)[C@@H](CCCCN)NC(=O)[C@@H](CCCNC(=N)N)NC(=O)[C@@H](C)NC(=O)CNC(=O)[C@@H](CCCCN)NC(=O)[C@@H](CC(C)C)NC(=O)[C@@H](CC(C)C)NC(=O)[C@@H](CC(=O)O)NC(=O)[C@@H](Cc1ccc(O)cc1)NC(=O)[C@@H](CC(C)C)NC(=O)[C@@H](CCC(N)=O)NC(=O)[C@H](N)CCC(=O)O)[C@H](C)O)[C@H](C)CC)C(=O)N[C@H](CCC(N)=O)C(=O)N[C@H](CCCNC(=N)N)C(=O)N[C@H](CC(=O)O)C(=O)O [DRI-BCL10-P4] (H-[dE][dQ][dL][dY][dD][dL][dL][dK]G[dA][dR][dK][dR][dS][dS][dT][dR][dK][dK][dW][dK][dM][dR][dR][dN][dQ][dF][dW][dI][dK][dI][dQ][dR][dD]-OH),NF-κB pathway activation in HBL1 and TMD8 cells,repressed NF-κB pathway activation
same,NF-κB pathway activation in OCI-LY1 cells,but not in OCI-LY1 cells
